# Laboratory results as given in patent publication US12404283B2, “c-MYC mRNA translation modulators and uses thereof in the treatment of cancer” (Anima Biotech Inc., priority 2022, dated 2025).
# Where a name gives a salt, the structure may show the parent alone.
# Tested on: c-Myc
# Assay: c-Myc immunofluorescence assay
# Type: cell-based, human
# Conditions: A549 cells, 24 hours treatment, anti-c-Myc immunofluorescence
# Protocol: A549 human non-small cell lung carcinoma cells were treated for 24 hours with increasing compound concentration, cells were fixed and stained with a nuclei stain (DAPI) and anti-c-Myc fluorescent antibody. The c-Myc signal was quantified by image analysis, and data was exported and analyzed using TIBCO Spotfire® (TIBCO Corporation). Dose response curves were generated and fitted with logaristic regression to calculate potency (EC50 values). Potency values are presented in Table 2 for all compounds and are shown for selected compounds (FIG. 4).
# A549 cells were grown in 384-wells plates (Perkin Elmer, Cat. 6057300) for 48 hours, treated with compounds and then fixed for 20 min in 4% paraformaldehyde. After that permeabilization was done using 0.1% Triton X-100 in PBS for 20 min. Primary anti-c-Myc antibody (Abcam, ab32072) staining was performed for 90 min at room temperature. Cells then were washed twice with PBS and incubated with secondary antibody (Abcam, ab150075) for 90 min at room temperature. Nuclei were stained with DAPI for 10 min and washed twice with PBS.
# Cell images were taken with Operetta (Perkin Elmer, USA), a wide-field fluorescence microscope at 20× magnification. After acquisition, the images were transferred to Columbus software (Perkin-Elmer) for image analysis. In Columbus, cells were identified by their nucleus, using the “Find Nuceli” module and cytoplasm was detected based on the secondary antibody channel. Subsequently, the fluorescent signal was enumerated in the identified cell region. Then data was exported to a data analysis and visualization software, Tibco Spotfire, USA.
row,SMILES,Myc Efficacy (−LogEC50)
1,"CN1CCC(NC(=O)c2ccc3c(c2)sc2nc(-c4ccc(C5(O)CCNC5)cc4F)cn23)CC1 (stereo not shown) [compound 530, 2-(2-fluoro-4-(3-hydroxypyrrolidin-3-yl)phenyl)-N-(1-methylpiperidin-4-yl)benzo[d]imidazo[2,1-b]thiazole-7-carboxamide]",+++ (+++ ≥6)
2,"Cc1cccc(-c2cn3c(n2)sc2cc(C(=O)NCCCN4CC5CC4CN5C)ccc23)c1 (stereo not shown) [compound 248, N-(3-(5-methyl-2,5-diazabicyclo[2.2.1]heptan-2-yl)propyl)-2-(m-tolyl)benzo[d]imidazo[2,1-b]thiazole-7-carboxamide]",+ (+ >3 and <5)
3,"Cc1ccc(-c2cn3c(n2)sc2cc(C(=O)NCCN)ccc23)cc1 [compound 122, N-(2-aminoethyl)-2-(p-tolyl)benzo[d]imidazo[2,1-b]thiazole-7-carboxamide]",+ (+ >3 and <5)
4,"CNC(=O)c1cc2sc3nc(-c4ccc(C5CCCN5)cc4F)cn3c2cn1 (stereo not shown) [Compound 515, 2-(2-fluoro-4-(pyrrolidin-2-yl)phenyl)-N-methylimidazo[2′,1′:2,3]thiazolo[4,5-c]pyridine-7-carboxamide]",+++ (+++ ≥6)
5,"CCN(CC)CCCNC(=O)c1ccc2c(c1)sc1nc(-c3ccc(CN)cc3)nn12 [compound 348, 2-(4-(aminomethyl)phenyl)-N-(3-(diethylamino)propyl)benzo [4,5]thiazolo[3,2-b][1,2,4]triazole-6-carboxamide]",++ (++ ≥5 and <6)
6,"CNC(=O)c1ccc(-c2cn3c(n2)sc2cc(C(=O)NC4(C(F)(F)F)COC4)ccc23)cc1 [compound 206, 2-(4-(methylcarbamoyl)phenyl)-N-(3-(trifluoromethyl)oxetan-3-yl)benzo[d]imidazo[2,1-b]thiazole-7-carboxamide]",− (− ≤3)
7,"Cc1ccc(-c2cn3c(n2)sc2cc(C(=O)N4CCCCCC4)ccc23)cc1 [compound 102, Azepan-1-yl(2-(p-tolyl)benzo[d]imidazo[2,1-b]thiazol-7-yl)methanone]",+ (+ >3 and <5)
8,"CCN(CC)CCCNC(=O)c1ccc2c(c1)sc1nc(-c3ccc(C4CCOCC4)cc3)cn12 [compound 314, N-(3-(diethylamino)propyl)-2-(4-(tetrahydro-2H-pyran-4-yl)phenyl)benzo[d]imidazo [2,1-b]thiazole-7-carboxamide]",+ (+ >3 and <5)
9,"O=C(NC1CCCOC1)c1ccc2c(c1)sc1nc(-c3ccc(C4CCCN4)cc3F)cn12 (stereo not shown) [Compound 525, 2-(2-fluoro-4-(pyrrolidin-2-yl)phenyl)-N-(tetrahydro-2H-pyran-3-yl)benzo[d]imidazo[2,1-b]thiazole-7-carboxamide]",+++ (+++ ≥6)
10,"CN1CCC(NC(=O)c2ccc3c(c2)sc2nc(-c4ccc([C@@H]5C[C@H](O)CN5)cc4F)cn23)CC1 [Compound 522S, 2-(2-fluoro-4-((2S,4S)-4-hydroxypyrrolidin-2-yl)phenyl)-N-(1-methylpiperidin-4-yl)benzo[d]imidazo[2,1-b]thiazole-7-carboxamide]",+++ (+++ ≥6)
11,"CNC(=O)c1ccc(-c2cn3c(n2)sc2cc(C(=O)N[C@@H](CO)c4ccccc4)ccc23)cc1 [compound 213, (R)-N-(2-hydroxy-1-phenylethyl)-2-(4-(methylcarbamoyl)phenyl) benzo[d]imidazo[2,1-b]thiazole-7-carboxamide]",+ (+ >3 and <5)
12,"CNC(=O)c1ccc(-c2cn3c(n2)sc2cc(C(=O)NCC4CC(O)C4)ccc23)cc1 (stereo not shown) [compound 226, N-((3-hydroxycyclobutyl)methyl)-2-(4-(methylcarbamoyl)phenyl) benzo[d]imidazo[2,1-b]thiazole-7-carboxamide]",− (− ≤3)
13,"O=C(NCCCN1CCCCC1)c1ccc2c(c1)sc1nc(-c3ccc([C@@H]4CCCN4)cc3F)nn12 [compound 422, (S)-2-(2-fluoro-4-(pyrrolidin-2-yl)phenyl)-N-(3-(piperidin-1-yl)propyl)benzo[4,5]thiazolo [3,2-b][1,2,4]triazole-6-carboxamide]",+++ (+++ ≥6)
14,"O=C(NCCCN1CCC(F)CC1)c1ccc2c(c1)sc1nc(-c3ccc(C4CCCNC4)cc3F)cn12 (stereo not shown) [Compound 513, 2-(2-fluoro-4-(piperidin-3-yl)phenyl)-N-(3-(4-fluoropiperidin-1-yl)propyl)benzo[d]imidazo[2,1-b]thiazole-7-carboxamide]",+++ (+++ ≥6)
15,"CCN(CC)CCCNC(=O)c1ccc2c(c1)sc1nc(-c3ccc(C(=O)NC4CCNC4)cc3)cn12 (stereo not shown) [compound 296, N-(3-(diethylamino)propyl)-2-(4-(pyrrolidin-3-ylcarbamoyl)phenyl)benzo[d] imidazo[2,1-b]thiazole-7-carboxamide]",+ (+ >3 and <5)
16,"CNC(=O)c1ccc(-c2cn3c(n2)sc2cc(C(=O)NC[C@H](O)c4ccccc4)ccc23)cc1 [compound 256, (R)-N-(2-hydroxy-2-phenylethyl)-2-(4-(methylcarbamoyl)phenyl) benzo[d]imidazo[2,1-b]thiazole-7-carboxamide]",− (− ≤3)
17,"O=C(Nc1ccc2c(c1)sc1nc(-c3ccc(C4CCCN4)cc3F)cn12)C1CCOCC1 (stereo not shown) [Compound 594, N-(2-(2-fluoro-4-(pyrrolidin-2-yl)phenyl)benzo[d]imidazo[2,1-b]thiazol-7-yl)tetrahydro-2H-pyran-4-carboxamide hydrochloride]",+++ (+++ ≥6)
18,"CN1CCC(NC(=O)c2ccc3c(c2)sc2nc(-c4ccc(C5CC(C#N)CN5)cc4F)cn23)CC1 (stereo not shown) [compound 541, 2-(4-(4-cyanopyrrolidin-2-yl)-2-fluorophenyl)-N-(1-methylpiperidin-4-yl)benzo[d]imidazo[2,1-b]thiazole-7-carboxamide]",+++ (+++ ≥6)
19,"CNC(=O)c1ccc(-c2cn3c(n2)sc2cc(C(=O)NC4CC4OC)ccc23)cc1 (stereo not shown) [compound 240, N-(2-methoxycyclopropyl)-2-(4-(methylcarbamoyl)phenyl) benzo[d]imidazo[2,1-b] thiazole-7-carboxamide]",+ (+ >3 and <5)
20,"O=C(NCCCN1CCC(F)CC1)c1ccc2c(c1)sc1nc(-c3cc(F)c(C4CCCN4)c(Cl)c3)cn12 (stereo not shown) [compound 485, 2-(3-chloro-5-fluoro-4-(pyrrolidin-2-yl)phenyl)-N-(3-(4-fluoropiperidin-1-yl)propyl)benzo[d]imidazo[2,1-b]thiazole-7-carboxamide]",+++ (+++ ≥6)
21,"CCN1CCC[C@@H]1CNC(=O)c1ccc2c(c1)sc1nc(-c3cccc(OC)c3)cn12 [compound 127, (R)-N-((1-ethylpyrrolidin-2-yl)methyl)-2-(3-methoxyphenyl)benzo[d] imidazo[2,1-b]thiazole-7-carboxamide]",+ (+ >3 and <5)
22,"CCN(CC)CCCNC(=O)c1ccc2c(c1)sc1nc(-c3ccc(NC)cc3)cn12 [compound 164, N-(3-(diethylamino)propyl)-2-(4-(methylamino)phenyl)benzo [d]imidazo[2,1-b]thiazole-7-carboxamide]",+++ (+++ ≥6)
23,"CCOc1ccc(-c2cn3c(n2)sc2cc(C(=O)N4CCCCCC4)ccc23)cc1 [compound 106, azepan-1-yl(2-(4-ethoxyphenyl)benzo[d]imidazo[2,1-b]thiazol-7-yl)methanone]",+ (+ >3 and <5)
24,"CN1CCC(NC(=O)c2ccc3c(c2)sc2nc(-c4ccc([C@H]5CCCN5)cc4F)cn23)CC1 [Compound 503R, (R)-2-(2-fluoro-4-(pyrrolidin-2-yl)phenyl)-N-(1-methylpiperidin-4-yl)benzo[d]imidazo[2,1-b]thiazole-7-carboxamide]",+++ (+++ ≥6)
25,"CNC(=O)c1ccc(-c2cn3c(n2)sc2cc(C(=O)NCC4(C)CNC4)ccc23)cc1 [compound 278, N-((3-methylazetidin-3-yl)methyl)-2-(4-(methylcarbamoyl)phenyl) benzo[d]imidazo[2,1-b]thiazole-7-carboxamide]",− (− ≤3)
26,"CNC(=O)c1ccc(-c2cn3c(n2)sc2cc(C(=O)NCC4CC5(CC5)CN4)ccc23)cc1 (stereo not shown) [compound 279, N-((5-azaspiro[2.4]heptan-6-yl)methyl)-2-(4-(methylcarbamoyl)phenyl) benzo[d]imidazo[2,1-b]thiazole-7-carboxamide]",− (− ≤3)
27,"CNC(=O)c1ccc(-c2cn3c(n2)sc2cc(C(=O)NCCC4CCCN4C)ccc23)cc1 (stereo not shown) [compound 257, 2-(4-(methylcarbamoyl)phenyl)-N-(2-(1-methylpyrrolidin-2-yl)ethyl)benzo[d]imidazo [2,1-b]thiazole-7-carboxamide]",++ (++ ≥5 and <6)
28,"CCN(CC)CCCNC(=O)c1ccc2c(c1)sc1nc(-c3ccc(CNC)cc3)cn12 [compound 288, N-(3-(diethylamino)propyl)-2-(4-((methylamino)methyl)phenyl) benzo[d]imidazo[2,1-b]thiazole-7-carboxamide]",+++ (+++ ≥6)
